Experimental data: PubChem BioAssay (NCI)
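Test compounds were applied to cells in 96-well plates for 48 hours at 5 doses. At the GI50, growth is halved. The concentration for full growth arrest is given as TGI.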

Tests used:
Test in all cases: DTP human tumour cell line panel, 48 h
786-0 renal = test system: 786-0 renal
A498 renal = test system: A498 renal
IGROV1 ovarian = test system: IGROV1 ovarian
K-562 leukemia = test system: K-562 leukemia
RPMI-8226 leukemia = test system: RPMI-8226 leukemia
RXF 393 renal = test system: RXF 393 renal
SF-539 CNS = test system: SF-539 CNS
SW-620 colon = test system: SW-620 colon
T-47D breast = test system: T-47D breast
UACC-257 melanoma = test system: UACC-257 melanoma

| Structure (SMILES) | GI50 (786-0 renal) [µM] | TGI (786-0 renal) [µM] | GI50 (A498 renal) [µM] | TGI (A498 renal) [µM] | GI50 (IGROV1 ovarian) [µM] | TGI (IGROV1 ovarian) [µM] | GI50 (K-562 leukemia) [µM] | TGI (K-562 leukemia) [µM] | GI50 (RPMI-8226 leukemia) [µM] | TGI (RPMI-8226 leukemia) [µM] | GI50 (RXF 393 renal) [µM] | TGI (RXF 393 renal) [µM] | GI50 (SF-539 CNS) [µM] | TGI (SF-539 CNS) [µM] | GI50 (SW-620 colon) [µM] | TGI (SW-620 colon) [µM] | GI50 (T-47D breast) [µM] | TGI (T-47D breast) [µM] | GI50 (UACC-257 melanoma) [µM] | TGI (UACC-257 melanoma) [µM] |
| --- | --- | --- | --- | --- | --- | --- | --- | --- | --- | --- | --- | --- | --- | --- | --- | --- | --- | --- | --- | --- |
| CCC(C)n1ncn(-c2ccc(N3CCN(c4ccc(OCC5COC(Cn6cncn6)(c6ccc(Cl)cc6Cl)O5)cc4)CC3)cc2)c1=O (stereo not given) | 0.559 | 32.7 | 10.8 | > 100 | 82.5 | > 100 | 9.76 | > 100 | 0.973 | > 100 | 0.267 | 0.865 | 7.73 | > 100 | > 100 | > 100 | 1.27 | 74.3 | 57.7 | > 100 |
| O=C1NC(=O)C(c2cnc3ccccn23)=C1c1cn2c3c(cc(F)cc13)CN(C(=O)N1CCCCC1)CC2 | 3.05 | > 59.4 | 0.0108 | 11.5 | 21 | > 80 | 3.39 | > 100 | 15.9 | 46.6 | 0.0224 | 14.7 | 2.74 | 24.4 | 14.2 | 45.8 | 9.79 | > 69.2 | 18.1 | 40.4 |
| COc1cc(C2CC(c3cccc(Br)c3)=NN2C(C)=O)cc(OC)c1OC (stereo not given) | 0.771 | > 65.4 | 0.514 | > 19.7 | 2.04 | > 100 | 0.114 | 11.7 | 0.181 | 0.67 | 0.266 | 0.976 | 0.265 | 2.62 | 0.309 | > 100 | 0.372 | 29.7 | 25.3 | > 84.1 |
| CC(C)CCN1c2nc(Nc3cc(F)c(O)c(F)c3)ncc2N(C)C(=O)C1C (stereo not given) | 7.09 | 52.9 | 18.3 | 54.6 | 8.83 | > 61.2 | 2.63 | > 33.3 | 2.82 | 11.5 | 7.94 | 31.4 | 4.26 | 21.8 | 4.09 | 27.4 | 6.36 | 25.9 | 17.1 | > 88.2 |
| CS(=O)(=O)Nc1ccc2c(c1)oc(=O)c1ccccc12 | – | > 100 | – | > 100 | – | > 100 | – | > 100 | – | > 100 | – | > 100 | – | > 100 | – | > 100 | – | > 100 | – | > 100 |
| Clc1nc2ccccc2nc1CI | 3.95 | 13.8 | 20.5 | 42.9 | 6.47 | 17 | 1.74 | > 32.5 | 4.33 | 21.9 | 3.08 | 11.7 | 2.34 | 6.27 | 2.57 | 6.87 | 2.5 | 6.76 | 12.9 | 26.2 |
| NC(=O)NC1C(c2ccccc2)=C1c1ccccc1 | – | 73.8 | – | 39.9 | – | 28.4 | – | 43.1 | – | 45.4 | – | 14.8 | – | 31.2 | – | 37.5 | – | > 100 | – | 38.4 |
| O=C(Cc1ccc(/C=C/C(=O)c2ncc[nH]2)cc1)Nc1cc(F)c(F)c(F)c1 | 3.08 | 6.32 | 4.34 | 9.98 | 3.31 | 9.68 | 2.31 | > 25 | 0.665 | 1.79 | 3.06 | 6.56 | 3.56 | 6.95 | 1.88 | 6.79 | 2.91 | 10.5 | 4.49 | 11.9 |
| COc1ccc(-n2cc(-c3cc(OC)c(OC)c(OC)c3)c(C(=O)C(F)(F)F)c2C)cc1 | > 100 | > 100 | 6.4 | > 100 | 85.7 | > 100 | 22 | > 100 | 4.53 | > 100 | > 100 | > 100 | > 100 | > 100 | > 100 | > 100 | 3.81 | > 100 | 15.7 | > 100 |
| CCCCCCCCCCCCOC1C(C(COC2OC(C3COC(C)(C)O3)C3OC(C)(C)OC23)NC(=O)Nc2ccc(C(=O)O)cc2)OC2OC(C)(C)OC21 (stereo not given) | 2.24 | 5.49 | 2.48 | 8.53 | 2.11 | 4.87 | 3.79 | > 100 | 1.69 | 4.29 | 2.26 | 4.05 | 1.72 | 3.39 | 3.26 | 11 | 3.39 | 13.5 | 2.38 | 5.79 |
| CC(CCC=O)CCOCc1ccccc1 (stereo not given) | – | > 100 | – | > 100 | – | > 100 | – | > 100 | – | > 100 | – | > 100 | – | > 100 | – | > 100 | – | > 100 | – | > 100 |
| CC(=O)c1cccc(NC(=O)C(=O)NNc2n[nH]c(=S)n2N)c1 | – | 25.5 | – | 37.7 | – | 25.8 | – | 27.6 | – | 58.8 | – | 24.1 | – | 18.6 | – | 22.5 | – | 13.6 | – | 9.17 |
| O=C(Nc1nc2ccc(C(F)(F)F)cc2s1)c1cc(Cl)ccc1O | 2.14 | 30.6 | 0.309 | 2.26 | 0.621 | > 100 | 0.351 | > 100 | 0.276 | 2 | 1.76 | 11.1 | 1.49 | > 100 | 0.878 | 36.3 | 0.303 | 2.96 | 0.646 | 5.53 |
| CCN(CC)CCOc1ccc(-c2nc3cc(Cl)ccc3s2)cc1 | 1.68 | 3.14 | 1.66 | 3.83 | 1.85 | 3.61 | 1.26 | > 100 | 0.715 | 3.34 | 1.01 | 2.77 | 1.6 | 2.94 | 1.53 | 2.93 | 1.5 | 4.11 | 1.78 | 3.62 |
